According to paper PMC10812672, “Short Antimicrobial Peptide Derived from the Venom Gland Transcriptome of Pamphobeteus verdolaga Increases Gentamicin Susceptibility of Multidrug-Resistant Klebsiella pneumoniae” (Antibiotics, 2023):
Ends that are not written are not given here.

Legend:
E. coli ATCC® 8739 = type: cell-based, Escherichia coli; details: CLSI broth microdilution, Mueller-Hinton broth, peptide 30 µM, ~6 × 10^6 CFU/mL, 24 h 37 °C, OD600; triplicate, three independent assays; NA = no activity
Method: (§1) Activity screening was conducted using the broth microdilution method at a fixed peptide concentration of 30 µM against E. coli ATCC® 8739 and 25922, as well as S. aureus ATCC® 6538 and 29213. The bacterial density used for screening was approximately 6 × 10^6 CFU/mL [30]. Peptide activity measurements were conducted in terms of the growth inhibition percentage. No dose-response curves were generated during the screening phase as a resource optimization strategy in the initial activity evaluation. […] For S. aureus ATCC® 6538 and S. aureus ATCC® 29213, growth inhibition ranged from 0% to 140% and 0% to 98%, respectively (Table 1).
(§2) The evaluation of the antimicrobial activity of the peptides was conducted using the CLSI’s broth microdilution method for bacterial susceptibility testing. For the screening phase, peptides were evaluated at a single 30 μM concentration, in triplicate and in three independent assays, against the E. coli ATCC® 8739, E. coli ATCC® 25922, S. aureus ATCC® 6538, or S. aureus ATCC® 29213 reference USP and CLSI strains. For the determination of MIC, MBC, or IC50, peptides or antibiotics were evaluated in concentrations between 1.56–200 µM. These evaluations were conducted in triplicate and in three independent assays, against the E. coli ATCC® 25922, S. aureus ATCC® 29213, E. faecalis ATCC® 49532, P. aeruginosa ATCC® 9027, and K. pneumoniae ATCC® BAA-1705, or the clinically isolated MDR strain. In detail, 1 mL of a glycerol stock solution of the ATCC® or clinically isolated bacterial strain was added to 9 mL of Mueller-Hinton Broth and incubated for 18 h, 180 rpm and 37 °C (Incubator 1000, Heidolph Instruments, Schwabach, Germany). After the incubation, 1 mL of the previous solution was transferred to a new recipient containing 9 mL of fresh Mueller-Hinton broth and incubated for 4 h, 180 rpm and 37 °C (Incubator 1000, Heidolph Instruments, Schwabach, Germany). During the second incubation, the peptides or the antibiotics were dissolved in PBS pH 7.20 in concentrations between 19.53–2500 µM (MC5 Micro Balance, Sartorius AG, Göttingen, Germany). An amount of 10 µL of either peptide or antibiotic was dispensed in triplicate in 96-well flat bottom culture plates, along with 10 µL of PBS (Negative activity control), BTM-P1 (Positive activity control), or 10 µL of Mueller-Hinton broth (Blank); then, 110 µL of Mueller-Hinton broth was poured in all wells. Following this, the bacteria were suspended in Mueller-Hinton broth up to a concentration of approximately 1.50 × 10^8 CFU/mL, as measured by optical density at 600 nm between 0.06 to 0.11 (0.5 McFarland standard), in a Multiskan SkyHigh spectrophotometer (ThermoFisher Scientific, Waltham, MA, USA). Amounts of 5 µL of the 1.50 × 10^8 CFU/mL suspension were added to each well (except for the blank) for a final well concentration of approximately 6 × 10^6 CFU/mL. The plate was incubated for 24 h at 37 °C (BE 500, Memmert GmbH, Büchenbach, Germany) and optical density was measured at 600 nm in a Multiskan SkyHigh spectrophotometer (ThermoFisher Scientific, Waltham, MI, USA). Following the measurement of optical density, plates were visually inspected to determine the MIC. Subsequently, 100 µL of the concentration associated to the MIC and 100 µL of the next higher concentration were added to Petri dishes containing Mueller-Hinton Agar. The dishes were then incubated for 24 h at 37 °C (BE 500, Memmert GmbH, Büchenbach, Germany). After incubation, the Petri dishes were visually inspected, and the MBC was determined in the absence of growth. IC50 values were interpolated from regressions with correlation values above 0.70. Growth inhibition percentages were calculated as follows: Growth inhibition %=1−AbsPEPTIDE or ANTIBIOTIC−Median AbsBLANK/Median AbsPBS−Median AbsBLANK×100

E. coli ATCC® 25922 [1] = type: cell-based, Escherichia coli; details: CLSI broth microdilution, Mueller-Hinton broth, peptide 30 µM, ~6 × 10^6 CFU/mL, 24 h 37 °C, OD600; triplicate, three independent assays; NA = no activity
Method: as §1, §2

P. aeruginosa ATCC® 9027 = type: cell-based, Pseudomonas aeruginosa; details: for MIC: 1.56–200 µM, 24 h 37 °C, visual inspection, triplicate, three independent assays; for MBC: plating on Mueller-Hinton agar, absence of growth
Method: (§3) The nine AMPs identified in the initial screening were evaluated at concentrations between 1.56–200 µM, against E. coli ATCC® 25922, S. aureus ATCC® 29213, E. faecalis ATCC® 49532, P. aeruginosa ATCC® 9027, and K. pneumoniae ATCC® BAA-1705 (Supplementary Figures S2–S6). […] Only PvAMP66 and PvAMP172 reached the MBC for S. aureus at 50 µM and 100 µM, respectively (Table 2).
as §2

E. coli ATCC® 25922 [2] = type: cell-based, Escherichia coli; details: for MIC: 1.56–200 µM, visual inspection, triplicate, three independent assays; for MIC / MBC: 24 h 37 °C; for MBC: plating on Mueller-Hinton agar, absence of growth
Method: as §3, §2

S. aureus ATCC® 6538 = type: cell-based, Staphylococcus aureus; details: CLSI broth microdilution, Mueller-Hinton broth, peptide 30 µM, ~6 × 10^6 CFU/mL, 24 h 37 °C, OD600; triplicate, three independent assays; NA = no activity
Method: as §1, §2

S. aureus ATCC® 29213 = type: cell-based, Staphylococcus aureus; details: CLSI broth microdilution, Mueller-Hinton broth, peptide 30 µM, ~6 × 10^6 CFU/mL, 24 h 37 °C, OD600; triplicate, three independent assays; NA = no activity
Method: as §1, §2

[3] = tested on: multidrug-resistant (MDR) strain of K. pneumoniae, clinical isolate; test: microbe, parasite or virus in culture; type: cell-based, Klebsiella pneumoniae; details: for inhibition at 100 µM: Klebsiella pneumoniae, read-out: maximum growth inhibition
Method: A multidrug-resistant (MDR) strain of K. pneumoniae was identified and isolated from a tertiary-level hospital in Medellin, Colombia, using the VITEK-2 system (bioMérieux, Marcy-l’Étoile, France). The MDR strain was evaluated against several antibiotics at concentrations of 1.56–100 μM. […] In contrast, the strain was susceptible to doxycycline (Supplementary Figure S7g) and chloramphenicol (Supplementary Figure S7h), with MICs of 50 μM and 100 µM, respectively (Table 3). […] All of P. verdolaga’s AMPs were evaluated against the clinical isolate at concentrations of 1.56–200 µM (Supplementary Figure S8). […] A growth inhibition kinetic assay was conducted. […] All of P. verdolaga’s peptides at 100 μM induced morphological changes in the MDR K. pneumoniae, indicating membrane interactions, even though no significant inhibition was observed (Supplementary Figure S9).
as §2, with “Growth inhibition percentages were calculated as follows: Growth inhibition %=1−AbsPEPTIDE or ANTIBIOTIC−Median AbsBLANK/Median AbsPBS−Median AbsBLANK×100” left out

Molecule: ILKPFMLRR-NH2 [PvAMP84]
- E. coli ATCC® 8739 (Inhibition %) (E. coli ATCC® 8739): 24.29 ± 6.74 %
- inhibition (E. coli ATCC® 25922 [1]): 11.3 ± 3.72%

Molecule: QCRKLCFRNRCLTYCRGRG-NH2 (disulfide (positions not given here)) [PvAMP183, predicted P. verdolaga AMP]
- E. coli ATCC® 8739 (Inhibition %) (E. coli ATCC® 8739): 48.26 ± 2.41 %
- E. coli ATCC® 25922 (Inhibition %) (E. coli ATCC® 25922 [1]): 64.66 ± 1.26 %
- MIC (P. aeruginosa ATCC® 9027): 50 µM
- IC50 (P. aeruginosa ATCC® 9027; growth inhibition OD600, 95% confidence interval in parentheses): 48.3 µM
- MBC (P. aeruginosa ATCC® 9027): 100 µM
- MIC (E. coli ATCC® 25922 [2]): 25 µM
- IC50 (E. coli ATCC® 25922 [2]; growth inhibition OD600, interpolated from regression, 95% confidence interval in parentheses, read-out: IC50): 26.9 µM
- MBC (E. coli ATCC® 25922 [2]): 50 µM
- S. aureus ATCC® 6538 (Inhibition %) (S. aureus ATCC® 6538): 47.36 ± 1.27 %
- inhibition (S. aureus ATCC® 29213): 4.71 ± 21.9%

Molecule: GRIFRLLRK-NH2 [PvAMP82]
- E. coli ATCC® 8739 (Inhibition %) (E. coli ATCC® 8739): 64.01 ± 4.28 %
- E. coli ATCC® 25922 (Inhibition %) (E. coli ATCC® 25922 [1]): 74.94 ± 14.27 %
- MIC (P. aeruginosa ATCC® 9027): 200 µM
- MBC (P. aeruginosa ATCC® 9027): 200 µM
- MIC (E. coli ATCC® 25922 [2]): 100 µM
- MBC (E. coli ATCC® 25922 [2]): 100 µM
- S. aureus ATCC® 6538 (Inhibition %) (S. aureus ATCC® 6538): 43.03 ± 6.37 %
- S. aureus ATCC® 29213 (Inhibition %) (S. aureus ATCC® 29213): 43.44 ± 10.24 %

Molecule: CC1(C)S[C@@H]2[C@H](NC(=O)[C@H](N)c3ccccc3)C(=O)N2[C@H]1C(=O)O [ampicillin]
- inhibition at 100 µM [3]: ≤ 20%

Molecule: LLTGIKS-NH2 [PvAMP30]
- S. aureus ATCC® 6538 (Inhibition %) (S. aureus ATCC® 6538): 35.52 ± 7.29 %
- inhibition (S. aureus ATCC® 29213): 7.34 ± 10.3%

Molecule: penicillin
- maximum growth inhibition ([3]; MDR K. pneumoniae, at 100 μM, complete resistance): ≤ 20%

Molecule: SLWGMWR-NH2 [PvAMP7]
- E. coli ATCC® 8739 (Inhibition %) (E. coli ATCC® 8739): 26.74 ± 0.68 %
- E. coli ATCC® 25922 (Inhibition %) (E. coli ATCC® 25922 [1]): 18.21 ± 2.54 %
- MIC (E. coli ATCC® 25922 [2]): 200 µM
- S. aureus ATCC® 6538 (Inhibition %) (S. aureus ATCC® 6538): 37.89 ± 1.50 %
- S. aureus ATCC® 29213 (Inhibition %) (S. aureus ATCC® 29213): 23.66 ± 3.34 %

Molecule: RSVLKAHCRICRRRG-NH2 (disulfide) [PvAMP164, predicted P. verdolaga AMP]
- E. coli ATCC® 8739 (Inhibition %) (E. coli ATCC® 8739): 20.51 ± 4.31 %
- E. coli ATCC® 25922 (Inhibition %) (E. coli ATCC® 25922 [1]): 30.10 ± 3.90 %
- MIC (P. aeruginosa ATCC® 9027): 100 µM
- MBC (P. aeruginosa ATCC® 9027): 100 µM
- MIC (E. coli ATCC® 25922 [2]): 200 µM
- MBC (E. coli ATCC® 25922 [2]): 200 µM
- S. aureus ATCC® 6538 (Inhibition %) (S. aureus ATCC® 6538): 24.49 ± 10.18 %
- S. aureus ATCC® 29213 (Inhibition %) (S. aureus ATCC® 29213): 12.25 ± 1.29 %

Molecule: CN(C)[C@@H]1C(O)=C(C(N)=O)C(=O)[C@@]2(O)C(O)=C3C(=O)c4c(O)cccc4[C@@](C)(O)[C@H]3[C@H](O)[C@@H]12 [oxytetracycline]
- inhibition at 100 µM [3]: ≤ 20%

Molecule: Cc1onc(-c2c(Cl)cccc2Cl)c1C(=O)N[C@@H]1C(=O)N2[C@@H]1SC(C)(C)[C@@H]2C(=O)O [dicloxacillin]
- inhibition at 100 µM [3]: ≤ 20%

Molecule: FLGKNLG-NH2 [PvAMP15]
- S. aureus ATCC® 6538 (Inhibition %) (S. aureus ATCC® 6538): 43.62 ± 10.56 %
- inhibition (S. aureus ATCC® 29213): 27.5 ± 29.7%

Molecule: CRRVCYKNR CVTYCRG (disulfide) [PvAMP169, predicted P. verdolaga AMP]
- inhibition (E. coli ATCC® 8739): 13.6 ± 5.92%
- E. coli ATCC® 25922 (Inhibition %) (E. coli ATCC® 25922 [1]): 55.69 ± 4.65 %

Molecule: FSGNKLLPG-NH2 [PvAMP81]
- inhibition (E. coli ATCC® 8739): 8.57 ± 4.46%
- E. coli ATCC® 25922 (Inhibition %) (E. coli ATCC® 25922 [1]): 31.88 ± 2.18 %

Molecule: SLFKFLA-NH2 [PvAMP8]
- S. aureus ATCC® 6538 (Inhibition %) (S. aureus ATCC® 6538): 47.95 ± 3.62 %
- inhibition (S. aureus ATCC® 29213): 11.9 ± 8.93%

Molecule: LLSKIFG-NH2 [PvAMP16]
- S. aureus ATCC® 6538 (Inhibition %) (S. aureus ATCC® 6538): 42.06 ± 4.29 %
- inhibition (S. aureus ATCC® 29213): 13.8 ± 6.48%

Molecule: YRARCVIYC-NH2 (disulfide) [PvAMP69, predicted P. verdolaga AMP]
- inhibition (E. coli ATCC® 8739): 1.75 ± 9.78%
- E. coli ATCC® 25922 (Inhibition %) (E. coli ATCC® 25922 [1]): 19.08 ± 0.12 %
- MIC (E. coli ATCC® 25922 [2]): 200 µM
- MBC (E. coli ATCC® 25922 [2]): 200 µM
- S. aureus ATCC® 6538 (Inhibition %) (S. aureus ATCC® 6538): 32.32 ± 7.00 %
- S. aureus ATCC® 29213 (Inhibition %) (S. aureus ATCC® 29213): 29.81 ± 3.31 %

Molecule: [H]/N=C(/N)N[C@H]1[C@H](O)[C@@H](O)[C@H](O[C@@H]2O[C@@H](C)[C@](O)(C=O)[C@H]2O[C@@H]2O[C@@H](CO)[C@H](O)[C@@H](O)[C@@H]2NC)[C@@H](N/C(N)=N\[H])[C@@H]1O [streptomycin]
- inhibition at 100 µM [3]: ≤ 20%
